Test results taken from patent US9486434B2, “Method for delivery and use of isothiocyanates for prophylaxis and/or therapy of bladder cancer” (Health Research Inc., priority 2010, dated 2016).

Key:
[1] = tested on: normal human bladder epithelial cells (HUC); assay: MTT cell growth assay, normal bladder epithelial cells; format: cell-based; conditions: 72-h treatment
Experimental: FIG. 3. The effect of AITC on cell survival and proliferation. AITC was evaluated at the indicated concentrations in human bladder cancer UM-UC-3 cells, rat bladder cancer AY-27 cells, and normal human bladder epithelial cells (HUC). A. Cell growth inhibition, measured by MTT assay, 72-h AITC treatment. IC50 was calculated from nonlinear regression curve fit. B. Cell cycle arrest (□, subG1; ? , G1; ? , 5; ▪, G2/M), measured by flow cytometry, 24 h AITC treatment. C. Apoptosis induction, measured by an ELISA assay, 24 h AITC treatment. Mean±SE, n=3-6), *P<0.05.

[2] = female, F344, rat, in vivo
Experimental: FIG. 7. Pharmacokinetics of AITC in F344 rats. A & B. Five groups of 4-6 female rats were administered a single oral dose of AITC at 10 or 300 micromols/kg and then kept in metabolism cages for urine collection (1 rat/cage) for 1.5, 3, 6, 12 and 24 h. At the end of each time period, blood was drawn from one group of rats, from which plasma was prepared. C. Rats bearing orthotopic bladder tumors, 3 weeks after AY-27 cell inoculation, were administered a single oral dose of AITC at 300 micromols/kg. Orthotopic tumors were removed from the rats at 0 h (T1), 1.5 h (T2), and 6 h (T3) after AITC dosing. Concentrations of AITC equivalent in plasma, urine and tumor tissue homogenates were determined by the cyclocondensation assay developed in our lab. Each value is a mean±SE.
Rats were administered a single oral dose of AITC at 10 or 300 micromols/kg, and urine and blood were collected at several time intervals up to 24 h. Cyclocondensation assay was used for measurement of AITC equivalent in the samples [12]. Oral administration of AITC led to dose-dependent increase in the levels of AITC equivalent in both plasma and urine (FIGS. 7A & 7B). […]
AITC and NAC-AITC contents in the plasma and urine were determined using the high-performance liquid chromatography (HPLC)-based cyclocondensation assay, and are expressed as AITC equivalent or NAC-AITC equivalent. […]

[3] = Storage stability at room temperature; format: physicochemical; conditions: data not shown
[4] = Dissociation of NAC-AITC in phosphate buffer (HPLC); format: physicochemical; conditions: pH 7.4, 37° C.
Experimental: FIG. 11. Dissociation of NAC-AITC. NAC-AITC at 100 μM was freshly prepared in 20 mM sodium phosphate buffer (pH 7.4) containing 1% DMSO and incubated at 37° C. for 0, 0.5, 1, 2, 3, 4, 5 and 24 h. At each time point, an aliquot of the solution was analyzed for remaining NAC-AITC by HPLC. Each value is a mean±SD (n=3).
Measurement of dissociation of NAC-AITC. The assay was based on a known protocol. Briefly, a solution of NAC-AITC was prepared as rapidly as possible by dilution of 0.2 ml of 5 mM NAC-AITC freshly prepared in 20 mM sodium phosphate buffer (pH 7.4): DMSO (1:1) with 20 mM sodium phosphate buffer (pH 7.4) to 10 ml, resulting in a 0.1 mM NAC-AITC solution in 1% DMSO. An aliquot (0.05 ml) was immediately analyzed by HPLC; the remainder of the solution was incubated at 37° C. on a shaker, and an aliquot (0.05 ml) was analyzed by HPLC at different time points up to 24 h. The HPLC condition was the same as used in the urine analysis described above. A plot of the conjugate peak area remaining versus time was generated to determine the half-time of decomposition.

Compound | IC50 [1] [µM] | average 24-h urinary concentration as % of peak urinary concentration [2] | average 24-h urinary concentration relative to plasma concentration at 24 h [2] | stability when kept dry [3] | half-time of dissociation [4] [h]
C=CCN=C=S [AITC, allyl isothiocyanate] | 69.4 | 11.6-45.2% | 4,911-14,501 fold higher |  | 
C=CCNC(=S)SC[C@H](NC(C)=O)C(=O)O [NAC-AITC, N-acetyl-S—(N-allylthiocarbamoyl)cysteine] |  |  |  | at least 16 months | ~12
